Data: ChEMBL document CHEMBL4706720, “Pyrrolidine Compounds as Potential Lipid-Lowering Therapeutic in Cardiovascular Disease” (ACS Med Chem Lett, 2021)
pIC50: −log10 of the molar value.

Experiment: Inhibition of lipoprotein(a) assembly from Apo(a) and LDL particle in human HepG2 and HEK293 combined conditioned media incubated for 2 hrs by sandwich ELISA

SMILES	pIC50
O=C(O)[C@@H](Cc1cccc([S+]([O-])c2cccc(C[C@H](C(=O)O)[C@H]3CCNC3)c2)c1)[C@H]1CCNC1	9.40
O=C(O)[C@@H](Cc1cccc(NS(=O)(=O)Nc2cccc(C[C@H](C(=O)O)[C@H]3CCNC3)c2)c1)[C@H]1CCNC1	9.25
O=C(O)[C@@H](Cc1cccc(Sc2cccc(C[C@H](C(=O)O)[C@H]3CCNC3)c2)c1)[C@H]1CCNC1	9.44
O=C(O)[C@@H](Cc1cccc(CNCc2cccc(C[C@H](C(=O)O)[C@H]3CCNC3)c2)c1)[C@H]1CCNC1	9.03
O=C(O)[C@@H](Cc1cccc(Oc2cccc(C[C@H](C(=O)O)[C@H]3CCNC3)c2)c1)[C@H]1CCNC1	9.43
O=C(O)[C@@H](Cc1cccc(COc2cccc(C[C@H](C(=O)O)[C@H]3CCNC3)c2)c1)[C@H]1CCNC1	9.44

These reach a higher pIC50. Values come first.

pIC50	SMILES
9.97	CC(Cc1cccc(CN(Cc2cccc(CC(C)(C(=O)O)[C@H]3CCNC3)c2)Cc2cccc(CC(C)(C(=O)O)[C@H]3CCNC3)c2)c1)(C(=O)O)[C@H]1CCNC1 (some centres not stated)
9.46	O=C(O)[C@@H](Cc1cccc(Nc2cccc(C[C@H](C(=O)O)[C@H]3CCNC3)c2)c1)[C@H]1CCNC1
9.77	COc1cc(F)cc(CN(Cc2cccc(C[C@H](C(=O)O)[C@H]3CCNC3)c2)Cc2cccc(C[C@H](C(=O)O)[C@H]3CCNC3)c2)c1
9.63	O=C(O)[C@@H](Cc1cccc(S(=O)(=O)c2cccc(C[C@H](C(=O)O)[C@H]3CCNC3)c2)c1)[C@H]1CCNC1
10.02	O=C(O)[C@@H](Cc1cccc(CN(Cc2cccc(C[C@H](C(=O)O)[C@H]3CCNC3)c2)Cc2cccc(C[C@H](C(=O)O)[C@H]3CCNC3)c2)c1)[C@H]1CCNC1
9.54	O=C(O)[C@@H](Cc1cccc(OCCOc2cccc(C[C@H](C(=O)O)[C@H]3CCNC3)c2)c1)[C@H]1CCNC1
